The values that follow come from ChEMBL document CHEMBL1201862, “PubChem BioAssay data set” (2004).

Holding throughout (experiment): NCI anticancer screen, dose series, 48 h
Assay [1] deals with A498.
The test system of assay [2] is HCC 2998.
The test system of assay [3] is HCT-116.
Assay [4] has as its system HOP-92.
For assay [5], the system named is IGROV-1.
For assay [6], the system named is LOX IMVI.
Assay [7] has as its system M14.
The test system of assay [8] is MDA-MB-231.
In assay [9] the test system is Malme-3M.
Assay [10] has as its system NCI-H460.
Assay [11] deals with OVCAR-3.
The subject of assay [12] is OVCAR-4.
In assay [13] the test system is RXF 393.
Assay [14] concerns SF-539.
Assay [15] deals with SK-MEL-2.
Assay [16] has as its system SR.
In assay [17] the test system is T47D.
Assay [18] relates to U-251.
In assay [19] the test system is UACC-257.
Assay [20] has as its system UO-31.

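All cell lines were grown in 96-well plates and treated with compound for 48 hours. Abbreviation: GI50, concentration required for 50% inhibition of growth.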 The source made the active and inactive calls. Cut-off read from the data, not from the text of the source: active = GI50 up to about 1.1 µM and inactive = higher.

Take `O=C(Nc1ccc2oc(=O)c(C(=O)O)cc2c1)Oc1ccccc1`: the GI50 was > 100 µM (inactive) in assay [1]; 59.6 µM (inactive) in assay [2]; > 100 µM (inactive) in assay [3]; > 100 µM (inactive) in assay [4]; > 100 µM (inactive) in assay [5]; > 100 µM (inactive) in [6]. Besides, the GI50 in assay [7], in [8], in [9], in assay [10], in [11] and in assay [12] was > 100 µM (inactive) in each case. For the same molecule, the GI50 in [13], in assay [14], in assay [15], in assay [16], in assay [17] and in [18] was > 100 µM (inactive) throughout. The GI50 in [19] and in assay [20] was > 100 µM (inactive) each time.

With `CCOC(=O)C1(C#N)OC(=O)c2cnccc21` (stereo not given), the GI50 in [1], in [2], in [3], in [4], in [5] and in assay [6] was > 100 µM (inactive) in each case. For the same molecule, the GI50 in assay [7], in assay [8], in assay [9], in assay [10], in assay [11] and in assay [12] was > 100 µM (inactive) throughout. Besides, the GI50 in assay [13], in assay [14], in assay [15], in assay [16], in [17] and in assay [18] was > 100 µM (inactive) in each case. The GI50 in assay [19] and in [20] was > 100 µM (inactive) throughout.

As to `CC(C)=CCC[C@@H](C)C1=C(O)C(=O)C(C)=C(N)C1=O`, the GI50 is 39.8 µM (inactive) in assay [1]; 59.6 µM (inactive) in [2]; 45.1 µM (inactive) in assay [3]; 53.8 µM (inactive) in [4]; 7.69 µM (inactive) in [5]; 15.7 µM (inactive) in assay [6]. Moreover, the GI50 in assay [7] was 20.5 µM (inactive); in assay [8], 46.5 µM (inactive); in assay [9], 14.1 µM (inactive); in [10], 10.2 µM (inactive); in [11] it was 27.9 µM (inactive); in assay [12], 29.9 µM (inactive). Also, the GI50 in assay [13] was 32.9 µM (inactive); in assay [14], 31.6 µM (inactive); in [15] it was 29 µM (inactive); in assay [16], 16.7 µM (inactive); in [17] it was 23.9 µM (inactive); in assay [18], 34.8 µM (inactive). In addition, the GI50 in assay [19] is 38.5 µM (inactive); in assay [20], 11.1 µM (inactive).

As to `COc1ccc2/c(=C/c3ccc(N(C)C)cc3)c3cc(-c4ccccc4)[n+](C)n3c2c1`, the GI50 in assay [1] was 0.408 µM (active); in assay [2] it was 0.115 µM (active); in assay [3], 0.17 µM (active); in [4] it was 0.0931 µM (active); in assay [5] it was 0.112 µM (active); in assay [6] it was 0.161 µM (active). For the same molecule, the GI50 in assay [7] is 0.139 µM (active); in assay [8] it was 0.31 µM (active); in [9], 0.191 µM (active); in assay [10] it was 0.245 µM (active); in [11], 0.0834 µM (active); in assay [12] it was 0.347 µM (active). Also, the GI50 is 0.59 µM (active) in [13]; 0.495 µM (active) in assay [14]; 0.18 µM (active) in assay [15]; 0.092 µM (active) in assay [16]; 0.0805 µM (active) in assay [17]; < 0.0318 µM (active) in assay [18]. The values for the GI50 in assay [19] and in [20] were 0.135 µM (active) and 0.735 µM (active), respectively.

With `Cc1ccc(C2SCC(=O)N2c2ccc(-n3c(-c4ccccc4)nc4ccccc4c3=O)cc2)cc1` (stereo not given), the GI50 is 26.1 µM (inactive) in [1]; 17.5 µM (inactive) in assay [2]; 7.82 µM (inactive) in assay [3]; 15.2 µM (inactive) in [4]; 20.5 µM (inactive) in assay [5]; 9.98 µM (inactive) in assay [6]. Moreover, the GI50 was 23.3 µM (inactive) in [7]; 4.84 µM (inactive) in [8]; 22 µM (inactive) in assay [9]; 9.42 µM (inactive) in assay [10]; 13.2 µM (inactive) in assay [11]; 22.8 µM (inactive) in [12]. The GI50 was 22.8 µM (inactive) in assay [13]; 12.4 µM (inactive) in [14]; 20.8 µM (inactive) in assay [15]; 7.89 µM (inactive) in assay [16]; 15.5 µM (inactive) in assay [17]; 5.3 µM (inactive) in assay [18]. Besides, the GI50 in assay [19] is 24.9 µM (inactive); in [20], 16.2 µM (inactive).

As for `C[C@H](CCC(=O)NCC(=O)O)[C@H]1CC[C@H]2[C@@H]3[C@H](O)C[C@@H]4C[C@H](O)CC[C@]4(C)[C@H]3CC[C@]12C`, the GI50 in [1], in [2], in [3], in [4], in assay [5] and in assay [6] was > 100 µM (inactive) in each case. Also, the GI50 in [7] is > 100 µM (inactive); in assay [8], > 100 µM (inactive); in assay [9], 71.6 µM (inactive); in assay [10] it was > 100 µM (inactive); in [11], > 100 µM (inactive); in assay [12] it was > 100 µM (inactive). Moreover, the GI50 in assay [13], in [14], in assay [15], in [16], in [17] and in [18] was > 100 µM (inactive) throughout. Further, the GI50 in [19] and in assay [20] was > 100 µM (inactive) throughout.

On to `CC(=O)OC1CC2CC(=O)CC1N2C` (stereo not given), for which the GI50 in [1], in [2], in assay [3], in [4], in [5] and in assay [6] was > 100 µM (inactive) each time. The GI50 in assay [7], in [8], in [9], in [10], in assay [11] and in assay [12] was > 100 µM (inactive) each time. For the same molecule, the GI50 in assay [13], in assay [14], in assay [15], in [16], in [17] and in assay [18] was > 100 µM (inactive) in each case. In addition, the GI50 in assay [19] and in assay [20] was > 100 µM (inactive) in each case.
